Data on 25 compounds can be found in patent publication US12060333B2 (Hoffmann-La Roche Inc., priority 2021, dated 2024).

The structures appear in SMILES notation. pIC50: −log10 of the molar value.

In the first assay the target is SARS-CoV 3CLpro (Severe acute respiratory syndrome coronavirus, UniProt P0C6X7). Nature of the assay: biochemical.
Settings: not given
`Cc1cc(C(=O)N[C@@H](CC2(C)CC2)C(=O)NN(C[C@@H]2CCNC2=O)C(=O)[C@H](F)Cl)no1` [Example 70, N-[(1S)-2-[2-[(2R)-2-chloro-2-fluoro-acetyl]-2-[[(3S)-2-axopyrrolidin-3-yl]methyl]hydrazino]-1-[(1-methylcyclopropyl)methyl]-2-axo-ethyl]-5-methyl-isoxazole-3-carboxamide] showed a pIC50 of 7.03.

In a further assay the target is SARS-CoV-2 3CLpro (Severe acute respiratory syndrome coronavirus 2, UniProt P0DTD1). Kind of assay: biochemical. The note with it: IC50 (μM), SARS-CoV-2 3CLPro assay.
In general, IC50 refers to the concentration needed to halve the response being measured. `Cc1cc(C(=O)N[C@@H](CC2(C)CC2)C(=O)NN(C[C@@H]2CCNC2=O)C(=O)[C@H](F)Cl)no1` [Example 70, N-[(1S)-2-[2-[(2R)-2-chloro-2-fluoro-acetyl]-2-[[(3S)-2-axopyrrolidin-3-yl]methyl]hydrazino]-1-[(1-methylcyclopropyl)methyl]-2-axo-ethyl]-5-methyl-isoxazole-3-carboxamide] displayed an IC50 of 0.059 µM.

`COc1cccc2[nH]c(C(=O)N[C@@H](CC3CCCCC3)C(=O)NN(CCC(N)=O)C(=O)CCl)cc12` [Example 32, N-[(1S)-2-[2-(3-Amino-3-axo-propyl)-2-(2-chloroacetyl)hydrazino]-1-(cyclohexylmethyl)-2-axo-ethyl]-4-methoxy-1H-indole-2-carboxamide]: half-maximal inhibition (IC50) was put at 0.002 µM.

As for `CC(C)C[C@H](NC(=O)c1cc2ccccc2[nH]1)C(=O)NN(C[C@H]1CCNC1=O)C(=O)CF` (single isomer, unassigned) [Example 38-B], half-maximal inhibition (IC50) was put at 3.16 µM.

In turn, `Cc1cc(C(=O)N[C@@H](CC23CC(C2)C3)C(=O)NN(C[C@@H]2CCNC2=O)C(=O)[C@H](F)Cl)no1` [Example 71, N-[(1S)-1-(1-bicyclo[1.1.1]pentanylmethyl)-2-[2-[(2R)-2-chloro-2-fluoro-acetyl]-2-[[(3S)-2-axopyrrolidin-3-yl]methyl]hydrazino]-2-axo-ethyl]-5-methyl-isoxazole-3-carboxamide] had a concentration for half-maximal inhibition (IC50) of 0.11 µM.

Compound `CC(C)C[C@H](NC(=O)c1cc2cc(F)ccc2[nH]1)C(=O)NN(CCC(N)=O)C(=O)[C@H](F)Cl` (racemic) [Example 57-B, 5-fluoro-N-[rac-(1S)-1-[[(3-amino-3-oxo-propyl)-[rac-(2R)-2-chloro-2-fluoro-acetyl]amino]carbamoyl]-3-methyl-butyl]-1H-indole-2-carboxamide] had an IC50 of 0.01 µM.

Take `CC(C)C[C@H](NC(=O)c1ncc[nH]1)C(=O)NN(CCC(N)=O)C(=O)C(F)Cl` (mixture of isomers) [Example 96, N-[rac-(1S)-1-[[(3-amino-3-oxo-propyl)-(2-chloro-2-fluoro-acetyl)amino]carbamoyl]-3-methyl-butyl]-1H-imidazole-2-carboxamide]: the IC50 was found to be 0.66 µM.

Compound `CC(C)C[C@H](NC(=O)c1cc2ccccc2[nH]1)C(=O)NN(C[C@@H]1CCNC1=O)C(=O)CF` (single isomer, unassigned) [Example 38-A] yielded a concentration for half-maximal inhibition (IC50) of 0.074 µM.

On to `CC(C)C[C@H](NC(=O)c1nc2ccccc2[nH]1)C(=O)NN(CCC(N)=O)C(=O)[C@H](F)Cl` (single isomer, unassigned) [Example 63-B], for which it took 0.007 µM to reach half-maximal inhibition (IC50).

Compound `CC(C)C[C@H](NC(=O)c1cc2ccccc2[nH]1)C(=O)NN(CCC(N)=O)C(=O)[C@@H](F)Cl` (single isomer, unassigned) [Example 41-A] gave a half-maximal inhibitory concentration (IC50) of 0.005 µM.

In the case of `CC(C)C[C@H](NC(=O)OCc1ccccc1)C(=O)NN(CC1CCCNC1=O)C(=O)CCl` (stereo partly drawn) [Example 20, Benzyl N-[(1S)-1-[[(2-chloroacetyl)-[(2-oxo-3-piperidyl)methyl]amino]carbamoyl]-3-methyl-butyl]carbamate], the 50% inhibitory concentration (IC50) came to 0.0046 µM.

As for `COc1cccc2[nH]c(C(=O)NC(CC(C)C)C(=O)NN(CCC(N)=O)C(=O)[C@@H](F)Cl)cc12` (mixture of isomers) [Example 54-A, 4-Methoxy-N-[rac-(1S)-1-[[(3-amino-3-oxo-propyl)-[(2S)-2-chloro-2-fluoro-acetyl]amino]carbamoyl]-3-methyl-butyl]-1H-indole-2-carboxamide], the half-maximal inhibitory concentration (IC50) is 0.004 µM.

On to `CC(C)C[C@H](NC(=O)/C=C/c1ccccc1)C(=O)NN(CCC(N)=O)C(=O)[C@H](F)Cl` (single isomer, unassigned) [Example 86-A], for which it took 0.75 µM to reach half-maximal inhibition (IC50).

With `CC(C)C[C@H](NC(=O)c1nc2cc(Cl)ccc2[nH]1)C(=O)NN(CCC(N)=O)C(=O)[C@@H](F)Cl` (racemic) [Example 60-A, 5-chloro-N-[rac-(1S)-1-[[(3-amino-3-axo-propyl)-[rac-(2S)-2-chloro-2-fluoro-acetyl]amino]carbamoyl]-3-methyl-butyl]-1H-benzimidazole-2-carboxamide], half-maximal inhibition (IC50) required 0.008 µM.

Still in this assay, the particulars now being: read-out: IC50 (μM), SARS-CoV-2 3CLPro assay.
For the compound `O=C(N[C@@H](CC12CC(C1)C2)C(=O)NN(C[C@@H]1CCNC1=O)C(=O)[C@H](F)Cl)c1cc(C(F)(F)F)on1` [Example 99, N-[(1S)-1-(1-bicyclo[1.1.1]pentanylmethyl)-2-[2-[(2R)-2-chloro-2-fluoro-acetyl]-2-[[(3S)-2-axopyrrolidin-3-yl]methyl]hydrazino]-2-axo-ethyl]-5-(trifluoromethyl)isoxazole-3-carboxamide], the IC50 stood at 0.071 µM.

In the case of `Cc1cc(C(=O)N[C@@H](CC2CCCCC2)C(=O)NN(CCC(N)=O)C(=O)CCl)no1` [Example 48, N-[(1S)-2-[2-(3-amino-3-oxo-propyl)-2-(2-chloroacetyl)hydrazino]-1-(cyclohexylmethyl)-2-axo-ethyl]-5-methyl-isoxazole-3-carboxamide], the half-maximal inhibitory concentration (IC50) turned out to be 0.004 µM.

Turning to `NC(=O)CCN(NC(=O)[C@H](CC1CCCC1)NC(=O)OCc1ccccc1)C(=O)CCl` [Example 10, Benzyl N-[(1S)-2-[2-(3-amino-3-oxo-propyl)-2-(2-chloroacetyl)hydrazino]-1-(cyclopentylmethyl)-2-axo-ethyl]carbamate], the IC50 was 0.006 µM.

For `COc1cccc2[nH]c(C(=O)N[C@@H](CC3CCCCC3)C(=O)NN(CCC(N)=O)C(=O)CF)cc12` [Example 37, N-[(1S)-2-[2-(3-Amino-3-axo-propyl)-2-(2-fluoroacetyl)hydrazino]-1-(cyclohexylmethyl)-2-axo-ethyl]-4-methoxy-1H-indole-2-carboxamide], the 50% inhibitory concentration (IC50) turned out to be 0.038 µM.

Regarding `CC(C)C[C@H](NC(=O)OCc1ccccc1)C(=O)NN(CCC(N)=O)C(=O)C(C)Cl` (stereo partly drawn) [Example 4, Benzyl N-[(1S)-1-[[(3-amino-3-oxo-propyl)-(2-chloropropanoyl)amino]carbamoyl]-3-methyl-butyl]carbamate], the IC50 stood at 0.33 µM.

With `CC(C)C[C@H](NC(=O)OCc1ccccc1)C(=O)NN(CCC(N)=O)C(=O)C(Cl)c1ccccc1` (stereo partly drawn) [Example 3, Benzyl N-[(1S)-1-[[(3-amino-3-oxo-propyl)-(2-chloro-2-phenyl-acetyl)amino]carbamoyl]-3-methyl-butyl]carbamat], the half-inhibitory concentration (IC50) is 0.89 µM.

For `NC(=O)CCN(NC(=O)[C@H](CC1CCCCC1)NC(=O)c1cc2ccccc2[nH]1)C(=O)[C@H](F)Cl` [Example 59-B, N-[(1S)-2-[2-(3-amino-3-oxo-propyl)-2-[(2R)-2-chloro-2-fluoro-acetyl]hydrazino]-1-(cyclohexylmethyl)-2-axo-ethyl]-1H-indole-2-carboxamide], the IC50 was found to be 0.005 µM.

Turning to `COc1cccc2[nH]c(C(=O)N[C@@H](CC3CCCCC3)C(=O)NN(CCC(N)=O)C(=O)[C@H](F)Cl)cc12` [Example 56-B, N-[(1S)-2-[2-(3-amino-3-oxo-propyl)-2-[(2S)-2-chloro-2-fluoro-acetyl]hydrazino]-1-(cyclohexylmethyl)-2-axo-ethyl]-4-methoxy-1H-indole-2-carboxamide], the IC50 was 0.003 µM.

On to `CC(C)C[C@H](NC(=O)OC(C)(C)C)C(=O)NN(CCC(N)=O)C(=O)CCl` [Example 26, tert-Butyl N-[(1S)-1-[[(3-amino-3-oxo-propyl)-(2-chloroacetyl)amino]carbamoyl]-3-methyl-butyl]carbamate], for which the IC50 was determined as 0.67 µM.

Regarding `CC1(C[C@H](NC(=O)c2cc(C(F)(F)F)on2)C(=O)NN(C[C@@H]2CCNC2=O)C(=O)[C@H](F)Cl)CC1` [Example 98, N—((S)-1-(2-((R)-2-Chloro-2-fluoroacetyl)-2-(((S)-2-axopyrrolidin-3-yl)methyl)hydrazineyl)-3-(1-methylcyclopropyl)-1-oxopropan-2-yl)-5-(trifluoromethyl)isoxazole-3-carboxamide], the half-maximal inhibitory concentration (IC50) was found to be 0.017 µM.

Consider `CN(C(=O)c1cc2ccccc2[nH]1)[C@@H](CC1CCCCC1)C(=O)NN(CCC(N)=O)C(=O)CCl` [Example 39, N-[(1S)-2-[2-(3-Amino-3-axo-propyl)-2-(2-chloroacetyl)hydrazino]-1-(cyclohexylmethyl)-2-axo-ethyl]-N-methyl-1H-indole-2-carboxamide], for which the IC50 was 0.002 µM.

Turning to `CC(C)C[C@H](NC(=O)c1cc2cnccc2[nH]1)C(=O)NN(CCC(N)=O)C(=O)CCl` [Example 52, N-[(1S)-1-[[(3-amino-3-oxo-propyl)-(2-chloroacetyl)amino]carbamoyl]-3-methyl-butyl]-1H-pyrrolo[3,2-c]pyridine-2-carboxamide], the IC50 was 0.014 µM.

The target in a further assay is HCoV-229E 3CLpro (Human coronavirus 229E, UniProt P0C6X1). Kind of assay: HCoV-229E 3CLpro inhibition assay (FRET). The format is biochemical. The note with it: protease 25 nM, FRET substrate 15 μM, pre-incubated 1 hr, read-out: 229E (activity in different coronaviruses). The procedure:
HCoV-229E 3CL^pro inhibition assay
The HCoV-229E 3CL^pro was expressed in E. coli BL21 (DE3) with the protein sequence of
For the HCoV-229E 3CL^pro assay, 2 μL of […] recombinant HCoV-229E 3CL protease were mixed with serial dilutions of each compound in 4 μL assay buffer containing 40 mM HEPES, pH=8.0, 1 mM CHAPS, 150 mM NaCl, 1 mM EDTA, 1 mM TCEP in a well of a 384-well plate and pre-incubated at rt for 1 hr. The custom-synthesized fluorogenic 3CL^pro peptide substrate used in the assay is as follows: FAM-[…]-TAMRA (peptide sequence according to SEQ ID NO: 3). This FRET-based substrate contains a FAM fluorophore attached at the N-terminus of a canonical 3CL^pro peptide substrate. The fluorophore is internally quenched by the TAMRA. The reaction was initiated by the addition of 10 μL of the substrate with a final concentration of 15 μM and each well was incubated at RT for 30 mins. The final concentration of the protease used at the assay was 25 nM and each compound was at a final concentration range of 100-0.0016 μM. The IC50 value which is the value causing 50% inhibition of the catalytic activity of the HCoV-229E 3CL^pro was calculated by four parameters equation analysis.
With `Cc1cc(C(=O)N[C@@H](CC2(C)CC2)C(=O)NN(C[C@@H]2CCNC2=O)C(=O)[C@H](F)Cl)no1` [Example 70, N-[(1S)-2-[2-[(2R)-2-chloro-2-fluoro-acetyl]-2-[[(3S)-2-axopyrrolidin-3-yl]methyl]hydrazino]-1-[(1-methylcyclopropyl)methyl]-2-axo-ethyl]-5-methyl-isoxazole-3-carboxamide], the pIC50 is 7.62.

`O=C(N[C@@H](CC12CC(C1)C2)C(=O)NN(C[C@@H]1CCNC1=O)C(=O)[C@H](F)Cl)c1cc(C(F)(F)F)on1` [Example 99, N-[(1S)-1-(1-bicyclo[1.1.1]pentanylmethyl)-2-[2-[(2R)-2-chloro-2-fluoro-acetyl]-2-[[(3S)-2-axopyrrolidin-3-yl]methyl]hydrazino]-2-axo-ethyl]-5-(trifluoromethyl)isoxazole-3-carboxamide]: the pIC50 was 7.62.

As to `Cc1cc(C(=O)N[C@@H](CC23CC(C2)C3)C(=O)NN(C[C@@H]2CCNC2=O)C(=O)[C@H](F)Cl)no1` [Example 71, N-[(1S)-1-(1-bicyclo[1.1.1]pentanylmethyl)-2-[2-[(2R)-2-chloro-2-fluoro-acetyl]-2-[[(3S)-2-axopyrrolidin-3-yl]methyl]hydrazino]-2-axo-ethyl]-5-methyl-isoxazole-3-carboxamide], the pIC50 is 7.60.

In another assay the target is MERS-CoV 3CLpro (Middle East respiratory syndrome-related coronavirus, UniProt K9N7C7). Kind of assay: biochemical.
Settings: not given
`Cc1cc(C(=O)N[C@@H](CC2(C)CC2)C(=O)NN(C[C@@H]2CCNC2=O)C(=O)[C@H](F)Cl)no1` [Example 70, N-[(1S)-2-[2-[(2R)-2-chloro-2-fluoro-acetyl]-2-[[(3S)-2-axopyrrolidin-3-yl]methyl]hydrazino]-1-[(1-methylcyclopropyl)methyl]-2-axo-ethyl]-5-methyl-isoxazole-3-carboxamide] gave a pIC50 of 7.27.
